# Measurements: patent US5766875A, “Metabolic monitoring of cells in a microplate reader” (priority 1995, dated 1998)
# Where two headings read alike, the source gives them in different places.
# Experiments:
# TF-1 cells [1] = assay: Effect of cell-affecting agents on activation of TF-1 cells by GM-CSF, extracellular acidification rate (Example 9); type: cell-based; details: for inhibition at 10 µM: Homo sapiens
# Method: The cell effects of beta-Maleimido proprionic acid (NMPA), N-Ethyl maleimide (NEM), Ferricyanide (Fe3 CN)^-3 (i.e. FeCN) and Cupric o-phenanthroline (Cu o-Ph) on the activation of TF-1 cells by GM-CSF was measured by a procedure similar to that used in Example 5. TF-1 cells were starved overnight in media lacking GM-CSF. The cells were washed twice and re-suspended in simple indicator medium at 1×10^6 cells/ml. The simple indicator medium contained one of the following test substances: NMPA, MEM, FeCN or Cu o-Ph at the tested concentration. A control test, which had no cell-affecting agent, was run in parallel. The cells in the simple indicator medium with or without cell-affecting agents were warmed to 37° C. for 20 minutes prior to the addition of recombinant human GM-CSF (obtained from Sandoz/Schering-Plough Corp.) to a final concentration of 0.1 ng/ml, and the extracellular acidification rate was measured by monitoring OD560/OD420 at 37° C. for 45 minutes. Additionally, a set of cells were mock treated with an equal volume of simple indicator medium but without any GM-CSF as a control for GM-CSF activation. The acidification rates were calculated from the slope of log(OD560/OD420) from 20 to 40 minutes after addition of the GM-CSF.
# Generally, 0.1 ng/ml of GM-CSF caused a 100-150% increase in extracellular acidification rate. The cell-affecting agents inhibited the response of extracellular acidification to GM-CSF. Thus, these cell-affecting agents are inhibitory cell-affecting agents, while GM-CSF is a stimulatory cell-affecting agent. The measurements were made in duplicate and results are shown below as % inhibition of the response to GM-CSF, relative to control cells which received GM-CSF only.
# mammalian cells = details: cited from earlier work
# [2] = Apparent pH change with temperature of buffering systems as indicated by phenol red; type: physicochemical; details: phenol red pH indicator, 50 mM total buffer
# TF-1 cells [3] = details: TF-1 cells in culture; earlier work; cited from earlier work
# TF-1 cells [4] = assay: Extracellular acidification by TF-1 cells in response to GM-CSF (Example 5); type: cell-based
# Method: The results from using a preferred simple media (shown in Table 2) to monitor extracellular acidification by TF-I cells is shown in FIG. 13. The TF-1 cells and are grown in complete RPMI 1640 medium with 2.0 mM L-glutamine (Catalogue No. 430-1800, GIBCO-BRL, Grand Island, N.Y.) with added […], 50 μM β-mercaptoethanol, 1000 units/liter penicillin and 1.0 mg/liter streptomycin, 10% fetal bovine serum and Ing/ml GM-CSF (human Granulocyte/Macrophage--Colony Stimulating Factor) under 5% CO2 at 37° C.
# The cells are maintained at between 5×10^5 cells per ml and 5×10^6 cells per ml. […]
# The extracellular acidification measurements were done in a flat-bottom, 96-well polystyrene microplate placed in a THERMOmax™ microplate reader, set to 37° C. […] Extracellular acidification was measured with Automix™ on, and with SOFTMAX® software (Molecular Devices Corporation, Menlo Park, Calif.) and an Apple® Macintosh™ computer were used to kinetically monitor the optical density changes. The ratio of optical density at 560 nanometers/optical density at 420 nanometers, as a function of time, was measured by using the ODλ1 -ODλ2 feature of a THERMOmax™ microplate reader modified to measure ODλ1 /ODλ2 instead of ODλ1 -ODλ2 (as described previously). The log10 of the ratio of optical densities at 560 nanometers/optical density at 420 nanometers was calculated and plotted as a function of time. […]
compound,measurement,setting,value
"CCN1C(=O)C=CC1=O [NEM, N-Ethyl maleimide]",inhibition at 10 µM,"TF-1 cells [1]; TF-1, read-out: % Inhibition GM-CSF Response",98%
"O=C(O)CCN1C(=O)C=CC1=O [NMPA, beta-Maleimido proprionic acid]",inhibitory effects on GM-CSF activation (in words),"TF-1 cells [1]; 0.1 ng/ml GM-CSF, extracellular acidification",weak in comparison to NEM and Cu o-Ph
same,inhibition at 10 µM,"TF-1 cells [1]; TF-1, 10 μM, 0.1 ng/ml GM-CSF, duplicate, read-out: % Inhibition GM-CSF Response",3%
"O=S1(=O)OC(c2ccc(O)cc2)(c2ccc(O)cc2)c2ccccc21 [Phenol Red, phenolsulfonephthalein]",toxicity toward most mammalian cells,mammalian cells,minimal toxicity
"NC(CO)(CO)CO [TRIS, tris[Hydroxymethyl]aminomethane]",apparent change in pH with change in temperature,[2]; equilibrium with CO2 in air,-14.93 millipH/°C.
same,apparent change in pH with change in temperature,[2]; with 1.0M NaCl added,-13.36 millipH/°C.
Cupric o-phenanthroline [Cu o-Ph],% Inhibition GM-CSF Response,"TF-1 cells [1]; 25 μM, 0.1 ng/ml GM-CSF, duplicate",43%
GM-CSF: human Granulocyte/Macrophage--Colony Stimulating Factor,concentration giving the optimum proliferation rate,TF-1 cells [3],approximately 1 ng/ml
same,increase in extracellular acidification rate,"TF-1 cells [1]; 0.1 ng/ml GM-CSF, 37° C.",100-150%
same,saturating levels (no observance of a dose response),TF-1 cells [4],greater than 0.05 ng/ml
